From ChEMBL document CHEMBL6096723, “Discovery of novel capsaicin analogs as TRPV1 inhibitors for the treatment of idiopathic pulmonary fibrosis” (Eur J Med Chem, 2025)
Calls of active or inactive are those of the source. The calls are words filed in the database; no cut-off is given here.

Key:
[1] = Cytotoxicity against mouse NIH3T3 cells assessed as survival rate at 10 uM measured after 24 hrs by CCK-8 assay relative to control; assay type: toxicity, cell-based; details: read-out: Survival
NIH3T3 [2] = assay: Anti-fibrotic activity in mouse NIH3T3 cells assessed as inhibition of TGFbeta-induced total collagen production at 10 uM measured after 48 hrs by Sirius Red Collagen Detection Kit relative to control; assay type: functional
NIH3T3 [3] = assay: Anti-fibrotic activity in mouse NIH3T3 cells assessed as inhibition of TGFbeta-induced total collagen production measured after 48 hrs by Sirius Red Collagen Detection Kit relative to control; assay type: functional, cell-based; details: NIH3T3, 48 h
NIH3T3 [4] = assay: Inhibition of TGFbeta1-induced proliferation of mouse NIH3T3 cells assessed as colony formation at 10 uM measured after 7 to 14 days by Crystal violet staining based assay; assay type: functional, cell-based; details: time 7-14 day
L929 = assay: Anti-migratory activity in mouse L929 cells assessed as inhibition of TGFbeta1-induced migration at 10 uM measured after 24 hrs by Wound healing assay; assay type: functional, cell-based

Row | SMILES | viability at 24 h, 10 µM [1] [%] | inhibition at 10 µM (NIH3T3 [2]) [%] | IC50 (NIH3T3 [3]) [nM] | inhibition (NIH3T3 [4]) | Activity (L929)
1 | O=C(CCc1ccccc1)CC(O)CCc1ccccc1 (configuration not stated) | 111 | 62.9 |  |  | 
2 | O=C(CC/C=C/c1ccccc1)CCc1ccccc1 | -1.47 | 55.3 |  |  | 
3 | CCCCCCCCC(=O)NCc1ccc(O)c(OC)c1 [NONIVAMIDE] | 92 | 58.7 |  |  | 
4 | COc1cc(CCC(O)CC/C=C/c2ccccc2)ccc1O (configuration not stated) | 103 | 43.7 |  |  | 
5 | COC(/C=C/C=C/c1ccccc1)CCc1ccc(O)cc1 (configuration not stated) | 111 | 57.7 |  |  | 
6 | COC(=O)c1ccc2c(c1)NC(=O)/C2=C(\Nc1ccc(N(C)C(=O)CN2CCN(C)CC2)cc1)c1ccccc1 [NINTEDANIB] | 20.5 | 89.5 | 270 | Active | 
7 | CCCCCC(=O)NCc1ccc(OC(C)=O)c(OC(C)=O)c1 | 138 | 50.9 |  |  | 
8 | CCCCCCCC(=O)NCc1ccc(O)c(O)c1 | 133 | 58.1 |  |  | 
9 | CCCCCCCCC(=O)NCc1ccc(O)c(O)c1 | 90.5 | 61.4 |  |  | 
10 | COc1cc(/C=C/C(=O)CC(O)/C=C/c2ccc(O)c(OC)c2)ccc1O (configuration not stated) | 85 | 19.4 |  |  | 
11 | COc1cc(CNC(=O)CCCCCCC(C)C)ccc1O [DIHYDROCAPSAICIN] | 92.3 | 50 | 20400 |  | 
12 | CC(C)CC(=O)NCc1ccc(O)c(O)c1 | 115 | 10.4 |  |  | 
13 | O=C(/C=C/c1ccc(O)cc1)CC(O)/C=C/c1ccc(O)cc1 (configuration not stated) | 101 | 72.8 | 4760 |  | Active
14 | CCCCCCCC(=O)NCc1ccc(OC)c(OC)c1 | 103 | 11.6 |  |  | 
15 | CCCCCCCCCC(=O)NCc1ccc(OC)c(OC)c1 | 101 | -5.71 |  |  | 
16 | COc1ccc(CCC(=O)CCCCc2cccc(O)c2)cc1O | 95.7 | 60.6 |  |  | 
17 | COc1cc(CNC(=O)CCCC/C=C/C(C)C)ccc1O [CAPSAICIN] | 98.6 | 35.3 |  |  | 
18 | COc1ccc(CCC(/C=C/C=C/c2ccccc2)OC)cc1O (configuration not stated) | 93.2 | 63 |  |  | 
19 | COc1ccc(CCCCC(O)CCc2ccc(OC)c(O)c2)c(OC)c1 (configuration not stated) | 114 | 68.5 | 21900 |  | 
20 | Oc1ccc(/C=C/CCC(O)CCc2ccc(O)cc2)cc1 (configuration not stated) | 132 | 60.9 |  |  | 
21 | Oc1ccc(CCC(O)CC/C=C/c2ccccc2)cc1O (configuration not stated) | 131 | 56.6 |  |  | 
22 | CCCCC(=O)NCc1ccc(OC(C)=O)c(OC(C)=O)c1 | 131 | 53 |  |  | 
23 | COc1ccc(OC)c(CCCCC(=O)CCc2ccc(OC)c(O)c2)c1 | 96.8 | 59.2 |  |  | 
24 | COc1ccc(CNC(=O)CCCCc2ccccc2)cc1OC | 91.2 | -9.64 |  |  | 
25 | O=C(CCCCc1ccccc1)NCc1ccc(O)c(O)c1 | 118 | 65.2 |  |  | 

Row | SMILES | viability at 24 h, 10 µM [1] [%] | inhibition at 10 µM (NIH3T3 [2]) [%] | IC50 (NIH3T3 [3]) [nM] | inhibition (NIH3T3 [4]) | Activity (L929)
26 | COc1ccc(CNC(=O)CC(C)C)cc1OC | 88.2 | -41.7 |  |  | 
27 | CCCCCCCCC(=O)NCc1ccc(OC(C)=O)c(OC)c1 | 129 | 56.4 |  |  | 
28 | OC(/C=C/C=C/c1ccccc1)CCc1ccccc1 (configuration not stated) | 119 | 61.9 |  |  | 
29 | CCCCC(=O)NCc1ccc(OC)c(OC)c1 | 86 | -2.64 |  |  | 
30 | CCCCCC(=O)NCc1ccc(O)c(O)c1 | 118 | 60.2 |  |  | 
31 | CC(=O)Oc1ccc(/C=C/C(=O)Cc2ccccc2)cc1OC(C)=O | 149 | 18.8 |  |  | 
32 | CCCCCCCCCC(=O)NCc1ccc(OC(C)=O)c(OC(C)=O)c1 | 141 | 68.9 | 2630 | Active | 
33 | O=C(CC/C=C/c1ccccc1)CCc1ccc(O)cc1 | -3.97 | 40.1 |  |  | 
34 | COc1ccc(CCC(=O)CCCCc2cccc(O)c2)cc1 | 91.1 | 67.6 | 2080 | Active | 
35 | CC(=O)Oc1ccc(CNC(=O)CC(C)C)cc1OC(C)=O | 124 | 11.2 |  |  | 
36 | OC(CCCCc1ccccc1)CCc1ccccc1 (configuration not stated) | 74.1 | 72.2 | 1570 |  | Active
37 | CCCCCCCCC(=O)NCc1ccc(OC(C)=O)c(OC(C)=O)c1 | 137 | 66 |  |  | 
38 | CCCCCCCC(=O)NCc1ccc(OC(C)=O)c(OC(C)=O)c1 | 151 | 56.3 |  |  | 
39 | CCCCCC(=O)NCc1ccc(OC)c(OC)c1 | 85.8 | -9.02 |  |  | 
40 | COc1ccc(CCC(=O)CC/C=C/c2ccccc2)cc1 | 38.8 | 57.7 |  |  | 
41 | CCCCC(=O)NCc1ccc(O)c(O)c1 | 123 | 54.2 |  |  | 
42 | C(=C\C=C\c1ccccc1)/C=C/Cc1ccccc1 | -2.34 | 57.5 |  |  | 
43 | CC(=O)Oc1ccc(CCC(CCCCc2ccccc2)OC(C)=O)cc1OC(C)=O (configuration not stated) | 111 | 51.9 |  |  | 
44 | O=C(CCCCc1ccccc1)CCc1ccccc1 | 94.1 | 58.8 |  |  | 
45 | OC(CCc1ccccc1)CC(O)CCc1ccccc1 (configuration not stated) | 101 | 46.9 |  |  | 
46 | CCCCCCCCCC(=O)NCc1ccc(O)c(O)c1 | 121 | 64.8 |  |  | 
47 | CC(=O)Oc1ccc(CNC(=O)CCCCc2ccccc2)cc1OC(C)=O | 129 | 70.6 | 1430 | Active | 
48 | COc1cc(/C=C/C(O)CC(=O)/C=C/c2ccc(O)cc2)ccc1O (configuration not stated) | 88.9 | -41.6 |  |  | 
49 | O=C(CCCCc1ccccc1)CCc1ccc(O)cc1 | 117 | 49.7 |  |  | 
